From patent US9346823B2, “Detection and use of low molecular-weight modulators of the cold-menthol receptor TRPM8” (BASF SE, priority 2008, dated 2016)

The compounds below were run against T1, human receptor TRPM8 (Homo sapiens, UniProt Q7Z2W7) (assay: Assay on TRPM8 modulators: Ca2+-sensitive dye (Fluo-4) fluorescence in HEK293 cells stably transfected with human TRPM8). Conditions: tetracycline-induced, Fluo-4AM, agonist mode, triplicate, test concentrations 0.1-200 μM.
T1 construct: expressed in transfected cells
T1 sequence (Q7Z2W7 whole entry): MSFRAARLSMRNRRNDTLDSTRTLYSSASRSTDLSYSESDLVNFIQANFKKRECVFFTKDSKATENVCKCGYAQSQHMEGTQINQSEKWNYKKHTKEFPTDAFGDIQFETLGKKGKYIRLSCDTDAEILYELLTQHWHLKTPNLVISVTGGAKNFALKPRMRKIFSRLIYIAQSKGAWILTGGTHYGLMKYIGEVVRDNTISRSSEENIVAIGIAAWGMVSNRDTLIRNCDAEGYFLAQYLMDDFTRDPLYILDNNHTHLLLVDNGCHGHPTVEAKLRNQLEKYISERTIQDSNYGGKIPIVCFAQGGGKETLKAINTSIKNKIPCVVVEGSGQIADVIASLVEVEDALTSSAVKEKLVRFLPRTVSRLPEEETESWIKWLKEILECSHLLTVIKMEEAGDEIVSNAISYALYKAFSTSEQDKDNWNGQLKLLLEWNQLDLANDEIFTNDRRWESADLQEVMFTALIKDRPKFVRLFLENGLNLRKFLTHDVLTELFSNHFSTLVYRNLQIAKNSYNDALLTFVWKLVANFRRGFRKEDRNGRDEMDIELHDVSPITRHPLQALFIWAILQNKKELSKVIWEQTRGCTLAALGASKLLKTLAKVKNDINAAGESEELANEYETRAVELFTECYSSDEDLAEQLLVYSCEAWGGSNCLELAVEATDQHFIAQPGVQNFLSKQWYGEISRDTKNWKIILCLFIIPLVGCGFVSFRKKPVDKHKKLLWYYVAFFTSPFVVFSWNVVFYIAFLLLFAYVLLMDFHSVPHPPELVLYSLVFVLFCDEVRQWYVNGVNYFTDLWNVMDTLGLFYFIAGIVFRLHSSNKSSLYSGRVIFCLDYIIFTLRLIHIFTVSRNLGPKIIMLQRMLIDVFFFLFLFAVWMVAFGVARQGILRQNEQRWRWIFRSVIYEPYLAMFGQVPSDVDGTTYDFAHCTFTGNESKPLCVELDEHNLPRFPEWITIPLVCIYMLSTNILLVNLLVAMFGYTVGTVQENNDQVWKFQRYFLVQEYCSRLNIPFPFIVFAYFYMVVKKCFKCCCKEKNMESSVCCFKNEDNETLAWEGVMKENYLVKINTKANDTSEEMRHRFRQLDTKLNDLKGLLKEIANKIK
Type: cell-based
Protocol: In this connection, “standard conditions” is understood as meaning an activity test carried out with HEK293 cells which have been transformed with human TRPM8 and loaded with calcium-sensitive dye (such as e.g. Fluo-4AM, i.e. fluo-4-acetoxymethyl ester), subsequent addition of the test compound and detection of the color change, the experimental procedure taking place at 37° C.; as described e.g. example 3 below, or in Behrendt et al. (2004) loc. cit.).
As test cell system, HEK293 cell line stably transfected with the human TRPM8 DNA (cf. above plasmid pind-M8) are produced. Preference here is given to HEK293 which offers the option, via the introduced plasmid, of inducing the TRPM8 expression by means of tetracycline.
The agonization or antagonization of the receptor can be quantified by means of a Ca^2+-sensitive dye (e.g. FURA, Fluo-4 etc.). On their own, agonists bring about an increase in the Ca^2+ signal; antagonists bring about, in the presence of e.g. menthol, a reduction in the Ca^2+ signal (in each case detected via the dye Fluo-4, which has different fluorescent properties as the result of Ca^2+ ). • a) Test Procedure:
Firstly, a fresh culture of transformed HEK cells is prepared in a manner known per se in cell culture flasks. The test cells HEK293-TRPM8 are detached from the cell culture flasks by means of trypsin and 40 000 cells/well are sown out with 100 μl of medium in 96-well plates (Greiner # 655948 poly-D-lysine-coated). To induce the receptor TRPM8, tetracycline is added to the growth medium (DMEM/HG, 10% FCS tetracycline-free, 4 mM L-glutamine, 15 μg/ml blasticidin, 100 μg/ml hygromycin B, 1 μg/ml tetracycline). On the following day, the cells are loaded with Fluo-4AM dye and the test is carried out. For this, the procedure is as follows: • addition of in each case 100 μl/well of dye solution Ca-4 kit (RB 141, Molecular Devices) to in each case 100 μl of medium (DMEM/HG, 10% FCS tetracycline-free, 4 mM L-glutamine, 15 μg/ml blasticidin, 100 μg/ml hygromycin B, 1 μg/ml tetracycline) • incubation in the hatching cabinet, 30 minutes/37° C./5% CO2, 30 minutes/RT • preparation of the test substances (various concentrations in 200 μl of HBSS buffer), and also of positive controls (various concentrations of menthol, icilin and ionomycin in 200 μl of HBSS buffer) and negative controls (only 200 μl of HBSS buffer) • addition of the test substances in amounts of 50 μl/well and measurement of the change in fluorescence (e.g. in the assay instrument FLIPR, Molecular Devices or NovoStar, BMG) at 485 nm excitation, 520 nm emission, and evaluation of the effectiveness of the various substances/concentrations and determination of the EC50 values.
The test substances are used in the assay in triplicate in concentrations of 0.1-200 μM. Normally, the compounds are kept ready in DMSO solutions and are diluted down to a maximum DMSO concentration of 2% for the assay. • b) Test Result

| Structure (SMILES) | EC50 |
| --- | --- |
| COc1ccc(C(=O)Nc2sc3c(c2CN(C)C)CCCC3)cc1 [Compound 12] | 10 µM |
| COc1cnc(-c2ccccn2)nc1NC(C)C [Compound 3] | 2 µM |
| CC1(C)CC2CC(C)(CN2/C=N/c2sc3c(c2C#N)CCCCC3)C1 (stereo not shown) [Compound 10] | 10 µM |
| O=C(Nc1ccc([N+](=O)[O-])cc1)Nc1ccccc1N1CCCCC1 [Compound 6] | 3.5 µM |
| O=C1CN(C(=O)c2ccccc2)c2ccc(C(F)(F)F)cc2N1 [Compound 9] | 10 µM |
| O=C(Nc1cccc2ccccc12)N(Cc1ccccc1)c1ccccc1 [Compound 11] | 10 µM |
| O=C(COc1ccc2c(c1)OCO2)N(c1ccccc1)C1CCCCC1 [Compound 4] | 2.5 µM |
| C=CCn1c(C)cc(C(=O)CSc2nc(C)cc(C(F)(F)F)c2C#N)c1C [Compound 16] | 25 µM |
| O=C(/C=C/c1ccc2c(c1)OCO2)N(c1ccccn1)C1CCCCC1 [Compound 5] | 2.5 µM |

The next lines start with the values.

| EC50 | Structure (SMILES) |
| --- | --- |
| 100 µM | C=C1C2(C(=O)NCCc3ccccc3)CCC(C2)C1(C)C (stereo not shown) [Compound 19] |
| 10 µM | CC(NCc1ccc(OC(F)F)cc1)c1ccc2c(c1)CCCC2 (stereo not shown) [Compound 13] |
| 20 µM | Cc1ccc2c(C)c(C(=O)N(Cc3ccco3)C3CCS(=O)(=O)C3)oc2c1 (stereo not shown) [Compound 15] |
| 2 µM | CC1(C)CC(=O)C2=C(C1)N1CCc3ccccc3C1CC21SCCS1 (stereo not shown) [Compound 2] |
| 5 µM | Cc1[nH]c(SC(C)C(=O)Nc2cccc(C#N)c2)nc1Cc1ccccc1 (stereo not shown) [Compound 8] |
| 100 µM | CC1=C/C(=N\NC(=O)CCN2CCN(c3ccccc3)CC2)CC1 [Compound 18] |
| 20 µM | CCOC(=O)C1CCN(Cc2cc(C(C)C)c(O)c(C(C)C)c2)CC1 [Compound 14] |
| 50 µM | Cn1nc(C(F)(F)F)cc1Oc1cc(C2OCCO2)cc(Cl)n1 [Compound 17] |
| 4 µM | CCCCCCNC(=O)N(Cc1ccccc1)c1ccccc1 [Compound 7] |
| 0.4 µM | CC1OC(=O)C2=C1N1CCc3ccccc3C1CC21SCCS1 (stereo not shown) [Compound 1] |
